Data as given in paper PMC4627759, “Identification of Host-Plant Volatiles and Characterization of Two Novel General Odorant-Binding Proteins from the Legume Pod Borer, Maruca vitrata Fabricius (Lepidoptera: Crambidae)” (PLoS ONE, 2015).
“Also recorded” adds a separate entry of the source. Read-outs that look alike come from different tables or passages of the source.

What was measured:
[1] = tested on: antennae of Maruca vitrata females; assay: GC-EAD: antennal response of female moths to floral volatiles; conditions: volatiles of V. unguiculata flower buds/flowers
Protocol: Headspace collections were initially analyzed by an Agilent Technologies 7890A GC with a flame ionization detector (FID) coupled with an electroantennogram detector (Syntech, Hilversum, The Netherlands) followed the procedures as described by with some modifications. The column was kept at 50°C for 1 min, increased to 200°C at a rate of 10°C/min and then increased to 240°C at a rate of 5°C/min, which was maintained for 5 min. The outlet of the GC column was split with a specific Electronic Pressure Control splitter (Agilent) to obtain the requested flow accuracy in a ratio of 1: 3 for the FID and the cut antenna. Volatile compounds eluting from the GC column were led to the mounted antenna through a heated (230°C) transfer line (TC-02, Syntech, Hilversum, the Netherlands). Each antenna was prepared by cutting both distal and basic segments and was immediately mounted on the holder using conductive gel (Spectra® 360; Parker Laboratories, Fairfield, New Jersey, USA). Each sample was tested five times. Each tested antenna was derived from a different female and used only once. Synthetic chemicals used in the experiments were purchased from Sigma Chemical Co., J&K Scientific Ltd., Tokyo Chemical Industry Co., Sinopharm Chemical Reagent Co. and Aladdin Chemistry Co., respectively.

MvitGOBP1 = MvitGOBP1 (Maruca vitrata, UniProt A0A0S1S6H9); assay: Fluorescence competitive binding assay (1-NPN displacement) with recombinant MvitGOBP1
Protocol: (§1) Fluorescence binding activity was determined as described by previous study. Emission fluorescence spectra were recorded on a Hitachi F-4500 at 25°C in a right angle configuration, with a 1 cm light path quartz cuvette and 5 nm slits for both excitation and emission. The protein was dissolved in 20 mM Tris-HCl buffer, pH 7.4, and ligands were added as 1 mM methanol solutions. To measure the affinity of the fluorescent ligand 1-NPN to MvitGOBP1-2, a 2 μM protein solution in 20 mM Tris-HCl (pH 7.4) was titrated with aliquots of […] ligand in methanol to final concentrations of 2–16 μM. The probe was excited at 337 nm and emission spectra were recorded between 380 and 450 nm. The affinities of the other ligands were measured in competitive binding assays, where a solution of the protein and 1-NPN, both at a concentration of 2 μM, was titrated with 1 mM methanol solutions of each competitor over concentration ranges of 2–24 μM, depending on the ligand. The dissociation constant for 1-NPN and the stoichiometry of binding were obtained by processing the data using Prism software. Dissociation constants of the competitors were calculated from the corresponding IC50 values (concentrations of ligands halving the initial fluorescence value of 1-NPN), using the equation: Ki = [IC50] / (1 + [1-NPN] / K1-NPN), where [1-NPN] is the free concentration of 1-NPN and K1-NPN is the dissociation constant of the complex protein/1-NPN.

MvitGOBP2 = MvitGOBP2 (Maruca vitrata, UniProt A0A088MJX9); assay: Fluorescence competitive binding assay (1-NPN displacement) with recombinant MvitGOBP2; conditions: for binding ability to MvitGOBP2 (in words): among the 17 tested compounds
Protocol: as §1

Maruca vitrata females = assay: Field trapping experiment with volatile-baited Delta-traps; assay type: in vivo; conditions: 100 μl of 100 ng/μl in hexane on rubber septa, one week, six traps, Student's t-test
Protocol: Field trap experiments were determined as described by Wang et al. Custom-built Delta-traps with sticky inserts and rubber septa purchased from Pherobio Technology Co. Ltd. were used in the field experiments during the moth flight season in 2014. Traps were suspended from iron stakes and placed approximately 15 m apart. Key components of host-plant volatiles were prepared in hexane, and 100 μl solution (100 ng/μl) were added to rubber septa to be used as lures. Hexane was used as blank control and six trap replicates were used in the field experiment. Traps were checked everyday and the number of female moths per trap was determined for one week. Statistical analyses of trap data were used SPSS (SPSS Inc., Chicago, Illinous, U.S.A.), the significance of the differences between tested group and control group was evaluated by Student's t-test at P < 0.05 and P < 0.01.

M. vitrata females = tested on: M. vitrata females; set-up: method as in earlier work; conditions: cited from earlier work
[2] = dissociation constant calculated from IC50, 1-NPN competition, read-out: MvitGOBP1 Ki
[3] = ligand concentration displacing 50% of fluorescence of MvitGOBP1/1-NPN complex, protein and 1-NPN 2 μM, pH 7.4, 25°C, read-out: MvitGOBP1 IC50
[4] = dissociation constant calculated from IC50, 1-NPN competition, read-out: MvitGOBP2 Ki
[5] = ligand concentration displacing 50% of fluorescence of MvitGOBP2/1-NPN complex, protein and 1-NPN 2 μM, pH 7.4, 25°C, read-out: MvitGOBP2 IC50
[6] = '-' = exceeded 50 μM for half-maximal inhibition, read-out: MvitGOBP2 IC50 (class symbol)

MvitGOBP1, sequence (A0A0S1S6H9 entry or part of it): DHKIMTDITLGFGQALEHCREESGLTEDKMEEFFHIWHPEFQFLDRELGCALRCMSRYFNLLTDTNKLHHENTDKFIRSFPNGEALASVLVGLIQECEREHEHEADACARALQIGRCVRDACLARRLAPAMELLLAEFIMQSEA
MvitGOBP2, sequence (A0A088MJX9 entry or part of it): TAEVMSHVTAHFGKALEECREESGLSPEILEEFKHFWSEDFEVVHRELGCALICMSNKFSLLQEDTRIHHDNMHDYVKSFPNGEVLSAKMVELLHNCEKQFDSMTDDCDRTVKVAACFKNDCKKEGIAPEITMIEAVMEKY

| Ki (MvitGOBP1; [2]) [µM] | IC50 (MvitGOBP1; [3]) [µM] | Structure (SMILES) | EAD/EAG response of female antennae (in words) [1] | Ki (MvitGOBP2; [4]) [µM] | IC50 (MvitGOBP2; [5]) [µM] | also measured |
| --- | --- | --- | --- | --- | --- | --- |
| – | – | CC(=O)c1ccc(C)cc1C [1-(2,4-Dimethylphenyl)-ethanone] | responded | – | – | – |
| – | – | CCc1ccc(C(C)=O)cc1 [1-(4-ethylphenyl)-ethanone] | responded; also recorded: highest EAD responses | – | – | – |
| – | – | Oc1cccc2[nH]ccc12 [Compound 1H-indol-4-ol] | responded | – | – | female moths caught in traps vs blank lure (Maruca vitrata females): significant difference compared with the blank lure; attraction of females in wind tunnel (in words) (M. vitrata females): significantly attracted many M. vitrata females |
| 28.8 | 38.7 | CCc1cccc(CC)c1 [Compound 3, 1,3-diethylbenzene] | – | 22.4 | 33.8 | – |
| 19.2 | 25.8 | CCc1ccc(CC)cc1 [Compound 4, 1,4-diethylbenzene] | – | 27.1 | 40.9 | – |
| – | – | CCc1ccc(C=O)cc1 [Compound 4-ethylbenzaldehyde] | responded | – | – | – |
| – | – | CCC(=O)c1ccc(CC)cc1 [Compound 4-ethylpropiophenone] | – | – | – | female moths caught in traps vs blank lure (Maruca vitrata females): significant difference compared with the blank lure |
| – | – | O=Cc1ccccc1 [Compound 5, Benzaldehyde] | responded | – | – | IC50 (MvitGOBP1): 22.4 µM; Ki (MvitGOBP1): 16.6 µM; IC50 (MvitGOBP2): > 50 µM |
| 21.2 | 28.5 | CC(=O)c1ccccc1 [Compound 6, Acetophenone] | – | 26.5 | 40 | – |
| – | – | O=Cc1ccccc1O [Compound 7, 2-hydroxybenzaldehyde] | – | – | – | IC50 (MvitGOBP1): 20.8 µM; Ki (MvitGOBP1): 15.5 µM; IC50 (MvitGOBP2): 41.9 µM; Ki (MvitGOBP2): 22.9 µM |
| 14.2 | 19.1 | CCc1ccc(C=O)cc1 [Compound 8, 4-ethylbenzaldehyde] | – | 33.1 | 50 | – |
| 26.8 | 36.1 | CCCCCCCCOC(=O)CCC [Compound 9, Butanoic acid octyl ester] | – | 8.5 | 12.9 | binding ability to MvitGOBP2 (in words) (MvitGOBP2): very great bind ability; EAD/EAG response of female antennae (in words) ([1]; listed as Butanoic acid octyl ester): EAG response was weaker than other plant volatiles; EAD/EAG response of female antennae (in words) ([1]; listed as butanoic acid octyl ester): responded; female moths caught in traps vs blank lure (Maruca vitrata females): significant difference compared with the blank lure |
| – | – | CCc1ccc(C(C)=O)cc1 [Compound 10, 1-(4-ethylphenyl)-ethanone] | – | – | – | IC50 (MvitGOBP1): 22.9 µM; Ki (MvitGOBP1): 17 µM; IC50 (MvitGOBP2): 45 µM; Ki (MvitGOBP2): 29.8 µM |
| 18 | 24.2 | CC(=O)c1ccc(C)cc1C [Compound 12, 1-(2,4-Dimethylphenyl)-ethanone] | – | – | – | IC50 (MvitGOBP2; [6]): > 50 µM |
| 10.9 | 14.6 | Oc1cccc2[nH]ccc12 [Compound 15, 1H-indol-4-ol] | – | – | – | IC50 (MvitGOBP2; [6]): > 50 µM |
| – | – | CC(=O)c1ccc(C(C)=O)cc1 [Compound 16, 1,4-diacetyl benzene] | – | – | – | IC50 (MvitGOBP1): 30.5 µM; Ki (MvitGOBP1): 22.7 µM; IC50 (MvitGOBP2): 49.6 µM; Ki (MvitGOBP2): 32.9 µM |
| 16.8 | 22.6 | Cc1cc(C)cc(C(C)(C)C)c1 [Compound 17, 1-(1,1-Dimethylethyl)-3,5-dimethylbenzene] | – | – | – | IC50 (MvitGOBP2; [6]): > 50 µM |

| Structure (SMILES) | Ki (MvitGOBP1; [2]) [µM] | IC50 (MvitGOBP1; [3]) [µM] | EAD/EAG response of female antennae (in words) [1] | Ki (MvitGOBP2; [4]) [µM] | IC50 (MvitGOBP2; [5]) [µM] | also measured |
| --- | --- | --- | --- | --- | --- | --- |
| CCCCOC(=O)CCC [Compound 1, Butanoic acid butyl ester] | 12.5 | 16.8 | responded | 29.7 | 44.8 | female moths caught in traps vs blank lure (Maruca vitrata females): significant difference compared with the blank lure |
| C=C(C)[C@H]1CC=C(C)CC1 [Compound 2, Limonene] | 13.8 | 18.6 | responded | 29.2 | 44.1 | female moths caught in traps vs blank lure (Maruca vitrata females; listed as Limonene): most female moths were trapped; female moths caught in traps vs blank lure (Maruca vitrata females; listed as limonene): significant difference compared with the blank lure; also recorded: highest trapping effect; attraction of females in wind tunnel (in words) (M. vitrata females): significantly attracted many M. vitrata females; also recorded: strong behavioral activity |
| CC(C=O)Cc1ccccc1 (centres unmarked) [Compound 11, 2-methyl-3-phenylpropanal] | 17.8 | 23.9 | responded; also recorded: high electrophysiological responses | 3.81 | 6.98 | binding ability to MvitGOBP2 (in words) (MvitGOBP2): highest bind ability; female moths caught in traps vs blank lure (Maruca vitrata females): significant difference compared with the blank lure; attraction of females in wind tunnel (in words) (M. vitrata females): attract significantly M. vitrata females |
| CCC(=O)c1ccc(CC)cc1 [Compound 13, 4-ethylpropiophenone] | 15.2 | 20.4 | – | 26 | 39.3 | – |
| CC(=O)c1ccc(O)c(C)c1 [Compound 14, 4-hydroxy-3-methylacetophenone] | 18.3 | 24.6 | – | 17.1 | 25.8 | – |
